# According to US20120190613A1, “ECHINOCANDIN DERIVATIVES” (priority 2009, published 2012):
# Marks after values point to notes of the source that are not given here.
# Legend:
# [1] = test system: A. flavus 626 ATCC 64025; experiment: MIC by broth microdilution against A. flavus; type: cell-based; conditions: 48 hr, growth reduction of 50%
# Description: (§1) MIC values (μg/mL) of echinocandin class compounds of the invention against various Candida and Aspergillus species were obtained as follows. Test organisms were obtained from the American Type Culture Collection (Manassas, Va.). The isolates were maintained at −80 ° C., then thawed and sub-cultured one day prior to testing (seven days for Aspergillus strains).
# (§2) The mouse serum was heat-inactivated for 30 minutes at 56° C., and filtered through a 0.2 μm low protein binding filter unit prior to use.
# (§3) MIC values were determined using broth microdilution. The wells of the daughter plates ultimately contained 180 μL of RPMI-1640 medium with and without mouse serum, 10 μL of drug solution, and 10 μL of yeast or fungal inoculum.
# (§4) Prior to susceptibility testing, fungal isolates were removed from frozen storage, thawed at room temperature, and subcultured to Potato Dextrose Agar. The Candida strains were incubated overnight at 35° C. and the Aspergillus strains for 7 days at 25° C. Yeast colonies were inoculated into sterile saline and adjusted to the turbidity of a 0.5 McFarland standard. Inoculums from Aspergillus strains were prepared by washing the surface of an agar slant with 1 mL of sterile saline containing 0.05% of Tween 20. The resulting colloidial suspensions were adjusted to an optical density of 0.09 to 0.11 at λ 625 nm.
# (§5) Both the yeast and filamentous fungus suspensions were further diluted 1:100 in RPMI-1640 medium and dispensed into sterile reservoirs and used to inoculate the daughter plates. 10 μL of standardized inoculum was delivered into each well. This yielded a final cell concentration in the daughter plates of approximately 2.5×10^3 colony-forming units/mL. Plates were incubated at 35° C. for approximately 48 hr.
# (§6) Following incubation, microplates were viewed from the bottom using a plate viewer.
# [2] = test system: C. albicans 104 ATCC 90028; experiment: MIC by broth microdilution against C. albicans; type: cell-based; conditions: 48 hr
# Description: as §1, §2, §3, §4, §5, §6
# [3] = test system: C. parapsilosis 630 ATCC 90018; experiment: MIC by broth microdilution against C. parapsilosis; type: cell-based; conditions: 48 hr
# Description: as §1, §2, §3, §4, §5, §6
# [4] = test system: C. albicans R303; experiment: Mouse candidiasis infection model, C. albicans density in kidneys; type: in vivo, female CD-1 mice; conditions: for Difference from 24-hr control / Mean log10 CFU/kidneys (±SD) / Difference from 24-h control / Mean log10 CFU/kidneys (±SEM): kidneys at 24 hr
# Description: The objective of these studies was to evaluate the efficacy of test compounds in the mouse candidiasis infection model.
# The strain, C. albicans R303 was transferred from frozen storage onto Sabauroud dextrose agar (SDA) plates and grown for ˜24 hr at 35° C. The inoculum was prepared by transferring colonies from the plate to phosphate buffered saline (PBS) and the concentration adjusted to 10^6 CFU/mL with the aid of a spectrophotometer. The stock was diluted 1:9 to prepare the inoculum. Prior to each run the concentration was verified using the dilution plate count method.
# The female CD-1 mice used in this study were obtained from Charles River Laboratories, Portage, MI. The animals were approximately seven-weeks-old at the start of the study and weighed about 16-26 g.
# In one approach, mice were made neutropenic with IP injections of cyclophosphamide (150 mg/kg in 10 mL/kg) at 4 and 1 day before inoculation. Each animal was inoculated with the appropriate concentration by injecting 0.1 mL of inoculum into a tail vein. The test compounds were administered IP at 2 hr after infection.
# The kidneys were collected from four mice in control group 1 (untreated) at 2 hr after infection, and from the remaining mice in the study at 24 hr after infection. Kidneys were removed aseptically from each mouse and were combined in a sterile tube. An aliquot (2 mL) of sterile PBS was added to each tube and the contents homogenized with a tissue homogenizer (Polytron 3100). Serial dilutions of the tissue homogenates were conducted and 0.1 mL aliquots were spread on SDA plates and the plates incubated at 35° C. overnight. The CFU/kidneys were determined from colony counts. Data were analyzed using one-way ANOVA with the Tukey-Kramer Multiple Comparisons Test (GraphPad InStat version 3.06, GraphPad Software, San Diego, Calif.).
# Treatments were administered at 2 hr after infection with 2.1×10^5 CFU/mL of the organism. Data are the means of four mice.
# Treatments were administered at 2 hr after infection with 6.4×10^5 CFU/mL of the organism. Data are the means of four mice.
# Treatments were administered at 2 hr after infection with 3.8×10^5 CFU/mL of the organism. Data are the means of four mice.
# Treatments were administered at 2 hr after infection with 3.8×10^5 CFU/rnL of the organism. Data are the means of four mice.
# [5] = Second run, 5 mg/kg IP 2 hr after infection
# [6] = Fourth run, 0.5 mg/kg IP 2 hr after infection
# [7] = Fourth run, 1.5 mg/kg IP 2 hr after infection
# [8] = Fourth run, 4.5 mg/kg IP 2 hr after infection
# [9] = Third run, 0.5 mg/kg IP 2 hr after infection
# [10] = Third run, 1.5 mg/kg IP 2 hr after infection
# [11] = Third run, 4.5 mg/kg IP 2 hr after infection
smiles,measurement,setting,value
CCC(C)CC(C)CCCCCCCCC(=O)NC1CC(O)C(NCCNC(=O)CCCCCCCOCCOCCOCCOCCOCCOCCOCCOC)NC(=O)C2C(O)CCN2C(=O)C(C(O)CCN)NC(=O)C(C(O)C(O)c2ccc(O)cc2)NC(=O)C2CC(O)CN2C(=O)C(C(C)O)NC1=O (stereo not drawn) [Compound 3],MIC,[1]; 0% mouse serum,2 µg/mL
same,MIC,[1]; 50% mouse serum,8 µg/mL
same,MIC,[2]; 0% mouse serum,2 µg/mL
same,MIC,[2]; 50% mouse serum,>16 µg/mL
same,MIC,[3]; 0% mouse serum,>16 µg/mL
same,MIC,[3]; 50% mouse serum,>16 µg/mL
CCCCCOc1ccc(-c2ccc(-c3ccc(C(=O)NC4CC(O)C(OCCOCCOCCOCCOCCOCCOCCOC)NC(=O)C5C(O)C(C)CN5C(=O)C(C(C)O)NC(=O)C(C(O)C(O)c5ccc(O)cc5)NC(=O)C5CC(O)CN5C(=O)C(C(C)O)NC4=O)cc3)cc2)cc1 (stereo not drawn) [Compound 6],MIC,[1]; 0% mouse serum,0.125 µg/mL
same,MIC,[1]; 50% mouse serum,0.5 µg/mL
same,MIC,[2]; 0% mouse serum,2 µg/mL
same,MIC,[2]; 50% mouse serum,8 µg/mL
same,MIC,[3]; 0% mouse serum,>16 µg/mL
same,MIC,[3]; 50% mouse serum,>16 µg/mL
CCC(C)CC(C)CCCCCCCCC(=O)NC1CC(O)C(NCCNC(=O)OCCOCCOCCOC)NC(=O)C2C(O)CCN2C(=O)C(C(O)CCN)NC(=O)C(C(O)C(O)c2ccc(O)cc2)NC(=O)C2CC(O)CN2C(=O)C(C(C)O)NC1=O (stereo not drawn) [Compound 12],Difference from 24-hr control,[4]; [5],−0.78 ns log10 CFU/kidneys
same,Mean log10 CFU/kidneys (±SD),[4]; [5],4.42 ± 0.14 log10 CFU/kidneys
CCC(C)CC(C)CCCCCCCCC(=O)NC1CC(O)C(NCCNCCOC)NC(=O)C2C(O)CCN2C(=O)C(C(O)CCN)NC(=O)C(C(O)C(O)c2ccc(O)cc2)NC(=O)C2CC(O)CN2C(=O)C(C(C)O)NC1=O (stereo not drawn) [Compound 13],Difference from 24-hr control,[4]; [5],−4.55*** log10 CFU/kidneys
same,Mean log10 CFU/kidneys (±SD),[4]; [5],0.65 ± 0.75 log10 CFU/kidneys
CCC(C)CC(C)CCCCCCCCC(=O)NC1CC(O)C(NCCN)NC(=O)C2C(O)CCN2C(=O)C(C(O)CCNC(=O)OCCOC)NC(=O)C(C(O)C(O)c2ccc(O)cc2)NC(=O)C2CC(O)CN2C(=O)C(C(C)O)NC1=O (stereo not drawn) [Compound 14],Difference from 24-hr control,[4]; [5],−1.13 ns log10 CFU/kidneys
same,Mean log10 CFU/kidneys (±SD),[4]; [5],4.07 ± 0.17 log10 CFU/kidneys
CCC(C)CC(C)CCCCCCCCC(=O)NC1CC(O)C(NCCN)NC(=O)C2C(O)CCN2C(=O)C(C(O)CCNC(=O)OCCOCCOCCOC)NC(=O)C(C(O)C(O)c2ccc(O)cc2)NC(=O)C2CC(O)CN2C(=O)C(C(C)O)NC1=O (stereo not drawn) [Compound 15],Difference from 24-hr control,[4]; [5],−0.45 ns log10 CFU/kidneys
same,Mean log10 CFU/kidneys (±SD),[4]; [5],4.75 ± 0.20 log10 CFU/kidneys
CCC(C)CC(C)CCCCCCCCC(=O)NC1CC(O)C(NCCOCCOCCOCCOC)NC(=O)C2C(O)CCN2C(=O)C(C(O)CCN)NC(=O)C(C(O)C(O)c2ccc(O)cc2)NC(=O)C2CC(O)CN2C(=O)C(C(C)O)NC1=O (stereo not drawn) [Compound 16],Difference from 24-h control,[4]; [6],−0.16 ns log10 CFU/kidneys
same,Mean log10 CFU/kidneys (±SEM),[4]; [6],5.05 ± 0.12 log10 CFU/kidneys
same,Difference from 24-h control,[4]; [7],−0.04 ns log10 CFU/kidneys
same,Mean log10 CFU/kidneys (±SEM),[4]; [7],5.16 ± 0.03 log10 CFU/kidneys
same,Difference from 24-h control,[4]; [8],−0.42 ns log10 CFU/kidneys
same,Mean log10 CFU/kidneys (±SEM),[4]; [8],4.78 ± 0.18 log10 CFU/kidneys
same,Effect on density of C. albicans in the kidneys,"[4]; Fourth run, all dose levels (0.5, 1.5, 4.5 mg/kg)",ineffective
CCC(C)CC(C)CCCCCCCCC(=O)NC1CC(O)C(NCCOC)NC(=O)C2C(O)CCN2C(=O)C(C(O)CCN)NC(=O)C(C(O)C(O)c2ccc(O)cc2)NC(=O)C2CC(O)CN2C(=O)C(C(C)O)NC1=O (stereo not drawn) [Compound 17],Effect on density of C. albicans in the kidneys,"[4]; Fourth run, 0.5 mg/kg",not
same,Difference from 24-h control,[4]; [6],−0.87 ns log10 CFU/kidneys
same,Mean log10 CFU/kidneys (±SEM),[4]; [6],4.33 ± 0.14 log10 CFU/kidneys
same,Difference from 24-h control,[4]; [7],−2.09*** log10 CFU/kidneys
same,Mean log10 CFU/kidneys (±SEM),[4]; [7],3.11 ± 0.14 log10 CFU/kidneys
same,Difference from 24-h control,[4]; [8],−4.25*** log10 CFU/kidneys
same,Mean log10 CFU/kidneys (±SEM),[4]; [8],0.95 ± 0.55 log10 CFU/kidneys
same,Effect on density of C. albicans in the kidneys,"[4]; Fourth run, 4.5 and 1.5 mg/kg",significantly reduced the density
CCCCCOc1ccc(-c2ccc(-c3ccc(C(=O)NC4CC(O)C(OCCOC)NC(=O)C5C(O)C(C)CN5C(=O)C(C(C)O)NC(=O)C(C(O)C(O)c5ccc(O)cc5)NC(=O)C5CC(O)CN5C(=O)C(C(C)O)NC4=O)cc3)cc2)cc1 (stereo not drawn) [Compound 18],Difference from 24-hr control,[4]; [5],−3.44*** log10 CFU/kidneys
same,Mean log10 CFU/kidneys (±SD),[4]; [5],1.76 ± 0.44 log10 CFU/kidneys
CCCCCOc1ccc(-c2ccc(-c3ccc(C(=O)NC4CC(O)C(OCCOCCOC)NC(=O)C5C(O)C(C)CN5C(=O)C(C(C)O)NC(=O)C(C(O)C(O)c5ccc(O)cc5)NC(=O)C5CC(O)CN5C(=O)C(C(C)O)NC4=O)cc3)cc2)cc1 (stereo not drawn) [Compound 19],Difference from 24-hr control,[4]; [5],−3.49*** log10 CFU/kidneys
same,Mean log10 CFU/kidneys (±SD),[4]; [5],1.71 ± 0.35 log10 CFU/kidneys
same,Difference from 24-hr control,[4]; [9],−0.03 ns log10 CFU/kidneys
same,Mean log10 CFU/kidneys (±SEM),[4]; [9],4.84 ± 0.26 log10 CFU/kidneys
same,Difference from 24-hr control,[4]; [10],−2.06*** log10 CFU/kidneys
same,Mean log10 CFU/kidneys (±SEM),[4]; [10],2.82 ± 0.10 log10 CFU/kidneys
same,Difference from 24-hr control,[4]; [11],−3.82*** log10 CFU/kidneys
same,Mean log10 CFU/kidneys (±SEM),[4]; [11],1.05 ± 0.36 log10 CFU/kidneys
CCCCCOc1ccc(-c2ccc(-c3ccc(C(=O)NC4CC(O)C(OCCOCCOCCOC)NC(=O)C5C(O)C(C)CN5C(=O)C(C(C)O)NC(=O)C(C(O)C(O)c5ccc(O)cc5)NC(=O)C5CC(O)CN5C(=O)C(C(C)O)NC4=O)cc3)cc2)cc1 (stereo not drawn) [Compound 20],Difference from 24-hr control,[4]; [5],−3.27*** log10 CFU/kidneys
same,Mean log10 CFU/kidneys (±SD),[4]; [5],1.93 ± 0.44 log10 CFU/kidneys
CCCCCOc1ccc(-c2ccc(-c3ccc(C(=O)NC4CC(O)C(OCCOCCO)NC(=O)C5C(O)C(C)CN5C(=O)C(C(C)O)NC(=O)C(C(O)C(O)c5ccc(O)cc5)NC(=O)C5CC(O)CN5C(=O)C(C(C)O)NC4=O)cc3)cc2)cc1 (stereo not drawn) [Compound 21],Difference from 24-hr control,[4]; [9],−1.53** log10 CFU/kidneys
same,Mean log10 CFU/kidneys (±SEM),[4]; [9],3.35 ± 0.08 log10 CFU/kidneys
same,Difference from 24-hr control,[4]; [10],−2.62*** log10 CFU/kidneys
same,Mean log10 CFU/kidneys (±SEM),[4]; [10],2.26 ± 0.12 log10 CFU/kidneys
same,Difference from 24-hr control,[4]; [11],−4.22*** log10 CFU/kidneys
same,Mean log10 CFU/kidneys (±SEM),[4]; [11],0.65 ± 0.38 log10 CFU/kidneys
same,Effect on density of C. albicans in the kidneys compared to the infected controls,"[4]; Third run, all dose levels (0.5, 1.5, 4.5 mg/kg)",significantly reduced the density
